The results in this text go back to US4910214A, “Optical isomer of an imidazole derivative medetomidine as an alpha-2-receptor agonist” (Farmos Yhtyma Oy, priority 1987, dated 1990).

Where two headings read alike, the source gives them in different places.

For assay [1], the target named is T1, presynaptic α2 -adrenoceptors (Mus musculus, UniProt Q01338).
T1 construct: isolated, electrically stimulated mouse was deferens preparation; from tissue; host or cells: mouse vas deferens
T1 sequence (Q01338 1-465): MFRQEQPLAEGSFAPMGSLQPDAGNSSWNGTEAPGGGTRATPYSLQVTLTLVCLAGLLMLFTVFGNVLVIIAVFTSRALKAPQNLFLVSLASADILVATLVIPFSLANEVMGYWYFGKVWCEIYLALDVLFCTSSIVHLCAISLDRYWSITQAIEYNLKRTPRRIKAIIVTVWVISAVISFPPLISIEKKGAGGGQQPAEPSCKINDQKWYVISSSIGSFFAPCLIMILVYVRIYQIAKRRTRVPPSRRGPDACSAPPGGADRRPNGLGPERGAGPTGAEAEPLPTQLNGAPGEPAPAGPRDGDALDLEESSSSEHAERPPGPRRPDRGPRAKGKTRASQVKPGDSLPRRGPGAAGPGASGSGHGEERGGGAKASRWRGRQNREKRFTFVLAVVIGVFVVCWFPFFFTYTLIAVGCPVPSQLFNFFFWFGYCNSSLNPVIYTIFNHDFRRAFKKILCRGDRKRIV
Nature of the assay: α2-agonism in vitro, isolated electrically stimulated mouse vas deferens. The format is cell-based. The conditions noted are these: for EC50: negative log of molar concentration producing 50 percent of maximal inhibition of electrically induced contractions, read-out: α2 -agonism in vitro (mouse vas deferens). pD2 (converted). As for the experimental part: α2 -agonism was determined by means of isolated, electrically stimulated mouse was deferens preparation (Marshall et al., Br. J. Pharmac. 62, 147-151, 1978). […] Results are shown in Table 1, where the α2 -agonist effect is presented as the pD2 -value (negative logarith of the molar concentration of the compound producing 50 percent of maximal inhibition.)

In assay [2] the test system is mice. Nature of the assay: Spontaneous motility (Animex-activity meter). The class given is in vivo. The settings on record: Mus musculus, sc, 0.5 h; s.c.; 30 minutes before two-minute measuring period; read-out: ED50 in reducing spontaneous motility in mice.
Assay [3] has as its system mice. The assay can be described thus: Acetic acid-induced writhing test. The class given is in vivo. The conditions noted are these: Mus musculus, sc, 45 min before 1% acetic acid i.p.; writhes counted 25 min. As for the experimental part:
The sedative-analgesic properties of the compounds were studied in the spontaneous motility and writhing-test in the mouse. Spontaneous motility of mice and rats was measured using the Animex-activity meter. The test compounds were administered i.p. 30 minutes before the measuring periods of two minutes. In the writhing test the compounds studied and saline were administered s.c. to […], and 45 min. later 1 ml of 1% acetic acid was administered i.p. The number of writhes was recorded in the following 25 min. period (Koster et al., Fred. Proc. 18: 412, 1959).

For assay [4], the target named is T2, α2 -receptors (Rattus norvegicus, UniProt P22909).
T2 construct: from tissue; host or cells: rat brain membranes
T2 sequence (P22909 1-465): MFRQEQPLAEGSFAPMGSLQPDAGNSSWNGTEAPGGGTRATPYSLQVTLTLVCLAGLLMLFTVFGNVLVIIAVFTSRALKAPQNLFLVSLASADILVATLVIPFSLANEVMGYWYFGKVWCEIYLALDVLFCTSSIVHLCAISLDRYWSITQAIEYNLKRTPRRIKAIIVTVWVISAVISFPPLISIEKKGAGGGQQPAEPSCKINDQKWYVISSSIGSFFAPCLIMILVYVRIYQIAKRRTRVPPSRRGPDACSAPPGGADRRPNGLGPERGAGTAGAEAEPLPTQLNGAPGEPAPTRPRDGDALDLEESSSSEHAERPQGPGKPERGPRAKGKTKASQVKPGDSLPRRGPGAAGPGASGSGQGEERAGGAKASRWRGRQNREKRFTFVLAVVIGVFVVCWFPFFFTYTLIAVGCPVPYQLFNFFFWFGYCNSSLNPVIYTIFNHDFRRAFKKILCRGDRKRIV
Nature of the assay: biochemical. The class given is binding. An excerpt: (§1) The selectivity of the d-enantiomer as an α2 -agonist was studied in receptor binding experiments using rat brain membranes. […] 108, 163-9, 1985.

Assay [5] has as its system rat. The assay can be described thus: Elevated t-maze test, exploration of open and enclosed arms (anxiolytic effects). The format is in vivo. The settings on record: for Mean number of entries, closed / Mean number of entries, open / Mean number of entries, total / open/total entries: 5 minutes, n = 6. Here is the method:
The anxiolytic effects of the compounds were studied using a method described by Handley and Mithoni: Naunyn-Schmiedeb, Arch. Pharmacol. 327, 1-5, 1984. In this test the manner of exploration of open and enclosed arms in an elevated t-maze by a rat is examined. It has been shown that anxiolytic drugs increase the relative exploration of open arms. A rat is placed in the center of the t-maze and the number of open and enclosed entries is recorded during 5 minutes.

The next assay deals with α1 -receptors. Nature of the assay: 3H-prazosin displacement, receptor binding in rat brain membranes.
Text: as §1

For assay [6], the system named is rat. The conditions noted are these: for CSF MHPG-SO4 (% of control): 4 h after adm. An excerpt:
It is well known that anxiety states connected to withdrawal symptoms are due to noradrenergic hyperactivity.

The subject of the next assay is Sprague-Dawley rats. The conditions noted are these: anesthetized rats; for Decrease in BP / Decrease in heart rate: femoral vein. As for the experimental part: After this, the femoral artery was connected by a polyethylene tube to a blood pressure transducer. The test substance was then injected into the femoral vein and the blood pressure and the pulse frequency were registered with a recorder.

For assay [7], the system named is α2 -receptors. The assay can be described thus: biochemical. The settings on record: ratio of 3H-prazosin IC50 to 3H-clonidine IC50. The class given is binding, rat.
Text: as §1

`Cc1cccc(Cc2c[nH]cn2)c1C` [detomidine]: in assay [1], the EC50 was 3.16 nM. Moreover, the ED50 in the assay on mice [2] is 0.3 mg/kg; with mice [3], 0.02 mg/kg. Besides, at α2 -receptors [4], 3.7 nM corresponded to half-maximal inhibition (IC50).

On to `Cc1cccc([C@H](C)c2cnc[nH]2)c1C` [d-enantiomer], for which the EC50 in assay [1] is 0.501 nM. Further, the “Mean number of entries, closed” value with rat [5] (dose 0.0003 mg/kg) turned out to be 10.6; in the assay on rat [5] (dose 0.001 mg/kg), 10.6; in the assay on rat [5] (dose 0.003 mg/kg), 9.5; in the assay on rat [5] (dose 0.01 mg/kg), 8.8; with rat [5] (dose 0.03 mg/kg) it was 3.0. The “Mean number of entries, open” value in the assay on rat [5] (dose 0.0003 mg/kg) stood at 4.8; with rat [5] (dose 0.001 mg/kg), 3.2; with rat [5] (dose 0.003 mg/kg) it was 4.0; in the assay on rat [5] (dose 0.01 mg/kg), 5.8; in the assay on rat [5] (dose 0.03 mg/kg) it was 2.5. For the same molecule, the “Mean number of entries, total” value in the assay on rat [5] (dose 0.0003 mg/kg) worked out at 14.0; in the assay on rat [5] (dose 0.001 mg/kg), 13.8; in the assay on rat [5] (dose 0.003 mg/kg), 13.5; with rat [5] (dose 0.01 mg/kg) it was 14.6; in the assay on rat [5] (dose 0.03 mg/kg), 5.5. Moreover, the open/total entries with rat [5] (dose 0.0003 mg/kg) stood at 0.20; in the assay with rat [5] (dose 0.001 mg/kg), 0.23; in the assay with rat [5] (dose 0.003 mg/kg) it was 0.29; with rat [5] (dose 0.01 mg/kg), 0.39; in the assay on rat [5] (dose 0.03 mg/kg), 0.45. Besides, the “anxiolytic effect in the elevated t-maze test (in words)” value in the assay with rat [5] (summary of Table 5) was “anxiolytic profile”. Further, the ED50 in the assay with mice [2] was found to be 0.02 mg/kg; in the assay with mice [3] it was 0.01 mg/kg. Also, the IC50 stood at 55000 nM at α1 -receptors and 1.2 nM against α2 -receptors [4]. Also, in the assay on rat [6] (central and peripheral nervous systems), the “effect on noradrenaline release (in words)” value is reported as “able to reduce noradrenaline release”. In addition, the “CSF MHPG-SO4 (% of control)” value in the assay on rat [6] (dose 3 μg/kg) is -10 % of control; with rat [6] (dose 10 μg/kg) it was -20 % of control; in the assay with rat [6] (dose 30 μg/kg) it was -30 % of control; with rat [6] (dose 100 μg/kg), -65 % of control. The “effect on blood pressure and heart rate (in words)” value with Sprague-Dawley rats (summary of Table 7) was “clear anti-hypertensive and bradycardia effects”. Also, the “Decrease in BP” value was -8% in the assay on Sprague-Dawley rats (dose 0.001 mg/kg); -23% in the assay on Sprague-Dawley rats (dose 0.003 mg/kg); -43% in the assay on Sprague-Dawley rats (dose 0.01 mg/kg); -45% in the assay on Sprague-Dawley rats (dose 0.03 mg/kg); -45% with Sprague-Dawley rats (dose 0.1 mg/kg). Also, the “Decrease in heart rate” value was -21% in the assay with Sprague-Dawley rats (dose 0.001 mg/kg); -40% in the assay on Sprague-Dawley rats (dose 0.003 mg/kg); -47% in the assay on Sprague-Dawley rats (dose 0.01 mg/kg); -48% in the assay on Sprague-Dawley rats (dose 0.03 mg/kg); -50% in the assay with Sprague-Dawley rats (dose 0.1 mg/kg). The “α2 /α1 -selectivity” value with α2 -receptors [7] came out at 45849.

Take `Cc1cccc([C@@H](C)c2cnc[nH]2)c1C` [1-enantiomer]: the EC50 in assay [1] is 1000 nM. Moreover, the “type of agonism (mouse vas deferens)” value in [1] (remark in pD2 cell) was “partial agonist”. The median effective dose (ED50) in the assay on mice [2] and in the assay with mice [3] was more than 10 mg/kg each time. Further, the IC50 amounted to 190000 nM at α1 -receptors and 46 nM against α2 -receptors [4]. In addition, in the assay with α2 -receptors [7], the “α2 /α1 -selectivity” value came to 4129.

Consider `Clc1cccc(Cl)c1N=C1NCCN1` [clonidine, reference compound], for which the EC50 in assay [1] is 3.16 nM. The ED50 stood at 0.3 mg/kg in the assay with mice [2] and 0.03 mg/kg in the assay with mice [3]. The same molecule displayed a 50% inhibitory concentration (IC50) on α1 -receptors of 6200 nM.

Regarding `Cc1cccc(C(C)c2cnc[nH]2)c1C` (racemic) [medetomidine], the EC50 in assay [1] is 1 nM. Further, the ED50 was 0.05 mg/kg in the assay with mice [2] and 0.02 mg/kg in the assay with mice [3]. The figures for the half-inhibitory concentration (IC50) on α1 -receptors and on α2 -receptors [4] were 16700 nM and 3.3 nM, respectively. Also, the “α2 /α1 -selectivity” value with α2 -receptors [7] came out at 5060.

With `CN1C(=O)CN=C(c2ccccc2)c2cc(Cl)ccc21` [diazepam, reference compound], in the assay with rat [5] (dose 1 mg/kg), the “Mean number of entries, closed” value is reported as 10.5; the “Mean number of entries, open” value stood at 5.2; the “Mean number of entries, total” value is 15.7; the open/total entries was found to be 0.33.
